# Source: patent publication US8796457B2, “Compound useful for the treatment of degenerative and inflammatory diseases” (Galapagos NV, priority 2009, dated 2014)
# Like-named read-outs stand apart in the source and are kept apart here.
# Columns and labels:
# [1] = biological target: Recombinant human TYK2 catalytic domain (Homo sapiens (Human), UniProt P29597); experiment: TYK2 inhibition assay; format: biochemical; settings: 0.1 μM ATP
# Description: Recombinant human TYK2 catalytic domain (amino acids 871-1187; catalog number 08-147) was purchased from Carna biosciences. 5 ng of TYK2 was incubated with 12.5 μg polyGT substrate (Sigma catalog number P0275) in kinase reaction buffer (25 mM Hepes pH 7.5, 100 mM NaCl, 0.2 mM Na3VO4, 0.1% NP-40, 0.1 μM non-radioactive ATP, 0.125 μCi ^33P-gamma-ATP (GE Healthcare, catalog number AH9968) final concentrations) with or without 5 μL containing test compound or vehicle (DMSO, 1% final concentration), in a total volume of 25 μL, in a polypropylene 96-well plate (Greiner, V-bottom). After 90 min at 30° C., reactions were stopped by adding of 25 μL/well of 150 mM phosphoric acid. […] 40 μL/well of Microscint-20 was added, the top of the plates was sealed and readout was performed using the Topcount (Perkin Elmer). Kinase activity was calculated by subtracting counts per minute (cpm) obtained in the presence of a positive control inhibitor (10 μM staurosporine) from cpm obtained in the presence of vehicle. The ability of a test compound to inhibit this activity was determined as: Percentage inhibition=((cpm determined for sample with test compound present−cpm determined for sample with positive control inhibitor) divided by (cpm determined in the presence of vehicle−cpm determined for sample with positive control inhibitor))*100. […]
# [2] = system: JAK2 dependent pathway (GM-CSF induced IL-8) in human whole blood; experiment: Whole blood assay, GM-CSF stimulation, IL-8 ELISA; format: cell-based; settings: 6 blood donors, ± SEM, read-out: pIC50 for inhibition of GM-CSF induced increase of IL-8 (converted)
# Description: For GM-CSF stimulation, increase in interleukin-8 (IL-8) levels in plasma was measured using an IL-8 ELISA assay. Granulocyte macrophage-colony stimulating factor (GM-CSF)—induced interleukin 8 (IL-8) expression is a JAK2-mediated event.
# The increase in IL-8 levels in plasma was measured using an IL-8 ELISA assay.
# 10 μg GM-CSF was dissolved in 100 μL H2O to obtain a 100 μg/mL stock solution. The stock solution was stored at −20° C.
# A 3-fold dilution series of the test compound was prepared in DMSO (highest concentration: 10 mM).
# Human blood was collected in heparinized tubes. The blood was divided in aliquots of 245 μL. […] The GM-CSF stock solution was diluted 100-fold in RPMI medium to obtain a 1 μg/mL work solution. […] The samples were incubated at 37° C. for 2 h.
# The samples were centrifuged for 15 min at 1,000 g, 4° C. 100 μL of the plasma was harvested and stored at −80° C. until further use.
# The Human IL-8 Chemiluminescent Immunoassay kit from R&D Systems (Cat. n°: Q8000B) was used to determine IL-8 levels.
# Wash buffer was prepared by diluting 10× wash buffer in H2O. Working glo reagent was prepared by adding 1 part Glo Reagent 1 to 2 parts Glo Reagent B 15 min to 4 h before use.
# 100 μL assay diluent RD1-86 was added to each well. After that, 50 μL of sample (plasma) was added. […] Luminescence was measured (0.5 s/well read time).
# [3] = system: JAK2-dependent pathway (GM-CSF stimulated STAT5 phosphorylation, CD14+ cells) in human whole blood; experiment: Whole blood assay, GM-CSF stimulation, Phospho-STAT5 FACS; format: cell-based; settings: mean of 3 healthy volunteers, read-out: pIC50 in the inhibition of STAT5 phosphorylation (converted)
# Description: A flow cytometry analysis was also performed to establish compound selectivity for JAK1 over JAK2, ex vivo using human whole blood.
# The increase in phosphorylation of STAT5 by GM-CSF in monocytes was measured using an anti phospho-STAT5 antibody by FACS.
# Remaining diluted Lyse/Fix buffer was discarded.
# 10 μg rhGM-CSF (AbCys S.A., Cat N°P300-03) was dissolved in 100 μl of PBS 0.1% BSA to obtain a 100 μg/ml stock solution. The stock solution was stored aliquoted at −80° C.
# Control-treated samples received DMSO without any test compound.
# Human blood was collected in heparinized tubes.
# 50,000 total events were counted and Phospho-STAT5 positive cells were measured after gating on CD14+ cells.
# [4] = system: JAK1 dependent pathway (IFNα induced pSTAT1) in human whole blood; experiment: Whole blood assay, IFNα stimulation, Phospho-STAT1 ELISA; format: cell-based; settings: for IC50: Homo sapiens, 6 blood donors, ± SEM, read-out: pIC50 for inhibiting the INFα induced increase of pSTAT1 levels (converted)
# Description: The pH of the buffer was 7.3.
# Proteinase inhibitors were added to the buffer before use.
# The stock solution was stored at −20° C.
# Human blood was collected in heparinized tubes. The blood was divided in aliquots of 392 μL.
# The samples were incubated on ice for 15 min.
# The cellular extracts were thawed on ice. […] The strips were incubated overnight at 4° C.
# Absorbance was measured at 450 nm.
# [5] = additional data analysis protocol (R2 > 0.8, hill slope < 3)
# Sequence of Recombinant human TYK2 catalytic domain (P29597 871-1187): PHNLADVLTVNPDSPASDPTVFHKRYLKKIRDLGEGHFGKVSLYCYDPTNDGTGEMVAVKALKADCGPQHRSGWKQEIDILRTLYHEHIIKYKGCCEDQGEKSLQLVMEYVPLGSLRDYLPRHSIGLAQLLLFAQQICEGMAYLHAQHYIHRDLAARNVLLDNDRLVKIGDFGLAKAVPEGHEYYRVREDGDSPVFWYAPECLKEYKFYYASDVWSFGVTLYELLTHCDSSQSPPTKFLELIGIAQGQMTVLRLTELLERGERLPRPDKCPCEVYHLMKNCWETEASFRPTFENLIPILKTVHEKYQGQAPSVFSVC
smiles,measurement,setting,value
"CC1(C)CN(C(=O)c2ccc(-c3cccc4nc(NC(=O)C5CC5)nn34)cc2)C1 [Compound 1, Cyclopropanecarboxylic acid{5-[4-(3,3-dimethyl-azetidine-1-carbonyl)-phenyl]-[1,2,4]triazolo[1,5-a]pyridin-2-yl}-amide]",IC50,[1],219 ± 37 nM
same,IC50,[2]; [5],10700 nM
same,IC50,[2]; human whole blood,13500 nM
same,IC50,[3],4270 nM
same,IC50,[4]; [5],617 nM
same,IC50,[4]; human whole blood,479 nM
same,selectivity for the JAK1 pathway versus the JAK2 pathway,"[4]; IFNα pSTAT1 vs GM-CSF IL-8, human whole blood",28 fold
same,selectivity for the JAK1 pathway versus the JAK2 pathway,"[4]; additional data analysis protocol, IFNα pSTAT1 vs GM-CSF IL-8",17.6 fold
